Nine compounds from paper PMC6478789, “A chemical toolbox for the study of bromodomains and epigenetic signaling” (Nature Communications, 2019) can be followed below.

The target of one experiment is 53BP1 (Homo sapiens, UniProt Q12888). The experiment is described as follows: Temperature shift assay (non-BRD reader domains). Format: binding. The settings on record: 10µM compound. The protocol:
(§1) Temperature shift assays have been described by Fedorov et al.[46]. Recombinant protein domains (bromodomain or kinases) at a concentration of 2 μM in 10 mM HEPES, pH 7.5, and 500 mM NaCl were mixed with 10 μM of chemical probes. Temperature-dependent protein unfolding profiles were measured using a Real-Time PCR Mx3005p machine (Stratagene).
(§2) Wu et al., Supplementary figures and tables 14
(§3) Supplementary Table 3: Selectivity screening data (non-BRD reader domains):
(§4) Temperature shift assay data of BRD probes screened against a diver se panel of methyl-lysine
(§5) reader domains. Compounds were screened a concentration of 10 µM. Shown are temperature

The target in experiment [1] is BRPF3 (Homo sapiens, UniProt Q9ULD4). Nature of the experiment: Temperature shift assay (non-BRD reader domains). It is filed as binding. The settings on record: 10µM compound. On the procedure:
as §1, §2, §3, §4, §5
Target sequence in this assay (Q9ULD4 1076-1159 limits assumed, species assumed): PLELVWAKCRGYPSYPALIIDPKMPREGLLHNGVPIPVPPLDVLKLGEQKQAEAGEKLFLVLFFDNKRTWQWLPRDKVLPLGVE

In the next experiment the target is FXR1 (Homo sapiens, UniProt P51114). The experiment is described as follows: Temperature shift assay (non-BRD reader domains). It is filed as binding. The settings on record: 10µM compound. On the procedure:
as §1, §2, §3, §4, §5

The test system of the next experiment is RBBP1. Nature of the experiment: Temperature shift assay (non-BRD reader domains). It is filed as binding. The settings on record: 10µM compound. On the procedure:
as §1, §2, §3, §4, §5

A further experiment concerns the target TDRD3 (Homo sapiens, UniProt Q9H7E2). The experiment is described as follows: Temperature shift assay (non-BRD reader domains). Format: binding. The settings on record: 10µM compound. On the procedure: as §1, §2, §3, §4, §5
For the next experiment, the target named is WDR5 (Homo sapiens, UniProt P61964). The experiment is described as follows: Temperature shift assay (non-BRD reader domains). Format: binding. The settings on record: 10µM compound. On the procedure: as §1, §2, §3, §4, §5
For another experiment, the target named is EED (Homo sapiens, UniProt O75530). Nature of the experiment: Temperature shift assay (non-BRD reader domains). The settings on record: 10µM compound. It is filed as binding. The protocol: as §1, §2, §3, §4, §5
Chain of EED (O75530 whole entry, species assumed, the tested form may be a part): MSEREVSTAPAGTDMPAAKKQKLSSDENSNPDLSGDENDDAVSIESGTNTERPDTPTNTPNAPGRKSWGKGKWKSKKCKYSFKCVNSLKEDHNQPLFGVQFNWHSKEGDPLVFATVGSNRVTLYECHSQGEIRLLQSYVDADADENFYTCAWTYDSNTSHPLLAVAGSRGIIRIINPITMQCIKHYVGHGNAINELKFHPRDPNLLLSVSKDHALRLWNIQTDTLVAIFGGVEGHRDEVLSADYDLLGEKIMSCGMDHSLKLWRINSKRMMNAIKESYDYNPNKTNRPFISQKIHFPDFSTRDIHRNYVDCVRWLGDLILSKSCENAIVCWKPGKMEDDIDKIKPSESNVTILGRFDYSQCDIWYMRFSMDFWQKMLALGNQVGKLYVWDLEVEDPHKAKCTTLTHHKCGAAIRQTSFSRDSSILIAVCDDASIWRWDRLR
Another experiment addresses T1, SND1 (Homo sapiens, UniProt Q7KZF4).
T1 sequence (Q7KZF4 729-787 limits assumed): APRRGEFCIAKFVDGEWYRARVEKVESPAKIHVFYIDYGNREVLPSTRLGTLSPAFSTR
The experiment is described as follows: Temperature shift assay (non-BRD reader domains). The settings on record: 10µM compound. Format: binding. The protocol: as §1, §2, §3, §4, §5

The next experiment has as its target T2, UHRF1 (Homo sapiens, UniProt Q96T88).
T2 sequence (Q96T88 126-285 limits assumed): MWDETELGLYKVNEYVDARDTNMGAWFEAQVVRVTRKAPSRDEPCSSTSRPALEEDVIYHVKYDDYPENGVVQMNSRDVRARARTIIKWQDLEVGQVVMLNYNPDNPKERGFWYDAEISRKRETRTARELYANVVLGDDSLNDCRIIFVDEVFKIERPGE
The experiment is described as follows: Temperature shift assay (non-BRD reader domains). It is filed as binding. The settings on record: 10µM compound. On the procedure:
as §1, §2, §3, §4, §5

A further experiment has as its target T3, ATAD2A (Homo sapiens, UniProt Q6PL18).
T3 sequence (Q6PL18 980-1092 limits assumed): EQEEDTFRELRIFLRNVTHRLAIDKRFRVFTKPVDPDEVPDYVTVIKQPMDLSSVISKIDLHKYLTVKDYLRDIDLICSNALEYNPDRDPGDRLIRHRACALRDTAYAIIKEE
The experiment is described as follows: BROMOscan ligand-binding assay.

The next experiment deals with T4, BAZ2B (Homo sapiens, UniProt Q9UIF8).
T4 sequence (Q9UIF8 2060-2164 limits assumed): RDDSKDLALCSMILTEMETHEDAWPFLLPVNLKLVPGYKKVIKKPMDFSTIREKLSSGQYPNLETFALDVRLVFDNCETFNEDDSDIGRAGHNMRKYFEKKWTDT
The experiment is described as follows: BROMOscan ligand-binding assay.

In another experiment the target is T5, BRD1 (Homo sapiens, UniProt O95696).
T5 sequence (O95696 562-666 limits assumed): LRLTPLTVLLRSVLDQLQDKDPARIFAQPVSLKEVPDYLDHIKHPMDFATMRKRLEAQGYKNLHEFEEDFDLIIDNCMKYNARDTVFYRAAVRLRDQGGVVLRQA
The experiment is described as follows: BROMOscan ligand-binding assay.

The next experiment deals with BRD2(2) (Homo sapiens, UniProt P25440). Nature of the experiment: BROMOscan ligand-binding assay.
Chain of BRD2(2) (P25440 344-453 limits assumed): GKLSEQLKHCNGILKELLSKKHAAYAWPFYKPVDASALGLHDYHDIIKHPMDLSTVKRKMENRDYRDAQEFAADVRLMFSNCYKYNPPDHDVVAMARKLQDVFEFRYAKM
The target in a further experiment is BRD3(1) (Homo sapiens, UniProt Q15059). Nature of the experiment: BROMOscan ligand-binding assay. The settings on record: KD, BROMOscan, BRD3(1).
Chain of BRD3(1) (Q15059 34-140 limits assumed): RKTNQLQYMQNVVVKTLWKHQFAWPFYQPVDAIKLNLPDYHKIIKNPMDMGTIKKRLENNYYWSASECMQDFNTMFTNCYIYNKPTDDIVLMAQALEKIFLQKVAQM
The next experiment has as its target BRD4(1) (Homo sapiens, UniProt O60885). Nature of the experiment: BROMOscan ligand-binding assay.
The target of the next experiment is BRD4(1,2) (Homo sapiens, UniProt O60885). The experiment is described as follows: BROMOscan ligand-binding assay.
The target in a further experiment is BRD8(1) (Homo sapiens, UniProt Q9H0E9). Nature of the experiment: BROMOscan ligand-binding assay.
Chain of BRD8(1) (Q9H0E9 706-811 limits assumed): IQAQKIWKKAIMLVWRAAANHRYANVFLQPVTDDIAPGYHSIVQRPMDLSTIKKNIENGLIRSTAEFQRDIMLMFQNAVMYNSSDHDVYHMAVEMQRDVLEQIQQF
In a further experiment the target is T6, BRPF1 (Homo sapiens, UniProt P55201).
T6 sequence (P55201 628-732 limits assumed): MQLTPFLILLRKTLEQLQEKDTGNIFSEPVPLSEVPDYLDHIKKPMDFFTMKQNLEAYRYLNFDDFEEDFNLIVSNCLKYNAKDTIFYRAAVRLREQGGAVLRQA
Nature of the experiment: BROMOscan ligand-binding assay. The settings on record: KD, BROMOscan, BRPF1.

Experiment [2] concerns the target T7, BRPF3 (Homo sapiens, UniProt Q9ULD4).
T7 sequence (Q9ULD4 589-693 limits assumed): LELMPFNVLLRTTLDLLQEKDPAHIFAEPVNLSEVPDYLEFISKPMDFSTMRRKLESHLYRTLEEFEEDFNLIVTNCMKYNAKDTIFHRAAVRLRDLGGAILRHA
The experiment is described as follows: BROMOscan ligand-binding assay.
Excerpt: (§6) BROMOscan is a binding assay based on the well-known KINOMEscan technology. This assay measures the binding of a DNA-tagged bromodomain to an immobilized BRD ligand. If an inhibitor is present, it will compete with the bromodomain binding to the immobilized ligand, resulting in reduction of a quantitative PCR (qPCR) signal in a dose-dependent manner.

In the next experiment the target is CECR2 (Homo sapiens, UniProt Q9BXF3). Nature of the experiment: BROMOscan ligand-binding assay. The settings on record: KD, BROMOscan, CECR2.
Chain of CECR2 (Q9BXF3 434-538 limits assumed): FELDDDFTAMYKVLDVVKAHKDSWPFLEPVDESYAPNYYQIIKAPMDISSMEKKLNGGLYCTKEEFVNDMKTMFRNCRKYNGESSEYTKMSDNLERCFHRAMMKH
In another experiment the target is FALZ (Homo sapiens, UniProt Q12830). Nature of the experiment: BROMOscan ligand-binding assay. The settings on record: KD, BROMOscan, FALZ.
The target of another experiment is T8, GCN5L2 (Homo sapiens, UniProt Q92830).
T8 sequence (Q92830 728-832 limits assumed): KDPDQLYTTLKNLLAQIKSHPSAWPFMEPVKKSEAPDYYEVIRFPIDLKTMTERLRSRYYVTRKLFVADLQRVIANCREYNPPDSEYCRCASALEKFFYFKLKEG
Nature of the experiment: BROMOscan ligand-binding assay.

The target in the next experiment is PBRM1(2) (Homo sapiens, UniProt Q86U86). Nature of the experiment: BROMOscan ligand-binding assay.
Chain of PBRM1(2) (Q86U86 177-287 limits assumed): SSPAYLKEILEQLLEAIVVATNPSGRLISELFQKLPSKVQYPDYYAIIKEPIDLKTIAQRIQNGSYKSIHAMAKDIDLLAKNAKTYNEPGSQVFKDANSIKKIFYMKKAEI
In the next experiment the target is PBRM1(5) (Homo sapiens, UniProt Q86U86). The experiment is described as follows: BROMOscan ligand-binding assay. The settings on record: KD, BROMOscan, PBRM1(5).
Chain of PBRM1(5) (Q86U86 653-763 limits assumed): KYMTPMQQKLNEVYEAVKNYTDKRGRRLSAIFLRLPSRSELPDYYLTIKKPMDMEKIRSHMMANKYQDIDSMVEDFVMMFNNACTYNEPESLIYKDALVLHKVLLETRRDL
The next experiment concerns the target WDR9(2) (Homo sapiens, UniProt Q9NSI6). Nature of the experiment: BROMOscan ligand-binding assay. The settings on record: KD, BROMOscan, WDR9(2).
Setting [3] is: KD (BROMOscan), sheet prints no unit (nM).

Each structure is given as a SMILES string. Where only a bound is given, the exact number is not on record here.

Chain of 53BP1 (Q12888 1484-1603 limits assumed, species assumed): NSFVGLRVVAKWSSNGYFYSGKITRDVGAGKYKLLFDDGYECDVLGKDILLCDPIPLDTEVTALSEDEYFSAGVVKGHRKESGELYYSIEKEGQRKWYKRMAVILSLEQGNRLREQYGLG
Chain of TDRD3 (Q9H7E2 555-615 limits assumed, species assumed): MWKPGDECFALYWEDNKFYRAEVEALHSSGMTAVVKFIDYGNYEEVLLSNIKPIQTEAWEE
Chain of FXR1 (P51114 2-132 limits assumed, species assumed): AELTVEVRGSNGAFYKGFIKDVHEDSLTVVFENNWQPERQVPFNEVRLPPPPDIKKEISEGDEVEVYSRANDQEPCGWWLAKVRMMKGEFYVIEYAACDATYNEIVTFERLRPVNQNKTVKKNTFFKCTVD
Chain of WDR9(2) (Q9NSI6 1313-1418 limits assumed): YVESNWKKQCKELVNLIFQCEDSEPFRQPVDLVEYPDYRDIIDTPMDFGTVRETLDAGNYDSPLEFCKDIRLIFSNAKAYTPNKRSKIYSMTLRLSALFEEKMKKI
Excerpt for ATAD2A: as §6
Excerpt for BAZ2B: as §6
Excerpt for BRD1: as §6
Excerpt for BRD2(2): as §6
Excerpt for BRD3(1): as §6
Excerpt for BRD4(1): as §6
Excerpt for BRD4(1,2): as §6
Excerpt for BRD8(1): as §6
Excerpt for BRPF1: as §6
Excerpt for CECR2: as §6
Excerpt for FALZ: as §6
Excerpt for GCN5L2: as §6
Excerpt for PBRM1(2): as §6
Excerpt for PBRM1(5): as §6
Excerpt for WDR9(2): as §6

For `Cc1cc2c(cc1N1C(=O)c3cccc4c(CCCO)ccc(c34)C1=O)n(C)c(=O)n2C` [BAY-299], the “Tm (C) 10µM, temperature shift” value on 53BP1 was 0.3 Kelvin; at BRPF3 [1], 1.5 Kelvin; at FXR1, 0.8 Kelvin; in the experiment with RBBP1, -1.0 Kelvin; at TDRD3 it was -1.4 Kelvin; on WDR5 it was 0.2 Kelvin.

For `Cc1c(NC(=O)c2cc(C(N)=O)nc3cc(F)ccc23)c(C(F)(F)F)nn1Cc1ccc(C(C)(C)C)cc1` [BAY-588], the “Tm (C) 10µM, temperature shift” value at 53BP1 is -2.3 Kelvin; at EED, -0.5 Kelvin; at FXR1, -1.2 Kelvin; with RBBP1, -0.1 Kelvin; on SND1, -1.0 Kelvin; on TDRD3, -5.3 Kelvin. The “Tm (C) 10µM, temperature shift” value is given as -0.4 Kelvin on UHRF1 and -7.3 Kelvin at WDR5.

Regarding `COc1cc(Cl)c(C(=O)N[C@@H](CN[C@H]2CC[C@@H](N)CC2)Cc2ccc(C#N)cc2)cc1-c1ccc(CN[C@H](C)c2ccc(C)cc2)o1` [BAY-850], the “Tm (C) 10µM, temperature shift” value at 53BP1 is -0.7 Kelvin; at BRPF3 [1] it was -0.4 Kelvin; at FXR1 it was -1.7 Kelvin; in the experiment with RBBP1, -1.0 Kelvin; on SND1 it was -1.6 Kelvin; on TDRD3, -1.8 Kelvin. Moreover, the “Tm (C) 10µM, temperature shift” value at UHRF1 was -0.3 Kelvin; at WDR5 it was 0.2 Kelvin.

For the compound `Cc1c(NC(=O)c2cc(C(N)=O)nc3cc(F)ccc23)c(C(F)(F)F)nn1Cc1ccc(C#N)cc1` [BAY-876], the “Tm (C) 10µM, temperature shift” value on 53BP1 is listed as 0.0 Kelvin; on BRPF3 [1], -0.3 Kelvin; on EED it was -0.7 Kelvin; at FXR1 it was 0.8 Kelvin; in the experiment with RBBP1, -0.3 Kelvin; at SND1, -0.9 Kelvin. Also, the entries for the “Tm (C) 10µM, temperature shift” value on TDRD3, on UHRF1 and on WDR5 were -1.0 Kelvin, -0.2 Kelvin and 0.4 Kelvin, respectively.

Take `CN1C[C@H](Nc2cnn(C)c(=O)c2Br)C[C@H](c2ccccc2)C1` [GSK4027]: the “Tm (C) 10µM, temperature shift” value at 53BP1 is -0.1 Kelvin; on BRPF3 [1] it was -0.3 Kelvin; at EED it was -0.7 Kelvin; at FXR1 it was 0.3 Kelvin; in the experiment on RBBP1, -0.7 Kelvin; at SND1, -1.0 Kelvin. Further, the “Tm (C) 10µM, temperature shift” value on TDRD3 is recorded as -0.6 Kelvin; at UHRF1, -0.2 Kelvin; on WDR5, 0.2 Kelvin.

Consider `CO[C@H]1CNC[C@@H](OCC2CCC(F)(F)CC2)[C@@H]1Nc1ncc(-c2cncc(C)c2)c2cc(C)c(=O)[nH]c12` [GSK8814], for which the “Tm (C) 10µM, temperature shift” value at 53BP1 is -0.1 Kelvin; on BRPF3 [1] it was -0.2 Kelvin; at EED, -0.4 Kelvin; at FXR1, 0.4 Kelvin; in the experiment with RBBP1, -0.1 Kelvin; at SND1 it was -0.5 Kelvin. Moreover, the “Tm (C) 10µM, temperature shift” value is listed as -0.6 Kelvin at TDRD3, -0.2 Kelvin on UHRF1 and 0.2 Kelvin at WDR5.

Turning to `Cc1nnc2c3ccccc3c(N[C@@H](C)[C@H](c3ccccc3)N(C)C)nn12` [L-Moses], the “Tm (C) 10µM, temperature shift” value at BRPF3 [1] is listed as 1.0 Kelvin; on EED, -0.3 Kelvin; on FXR1 it was 0.3 Kelvin; in the experiment with RBBP1 it was -0.4 Kelvin; at SND1, -1.0 Kelvin; on TDRD3 it was -0.9 Kelvin. The “Tm (C) 10µM, temperature shift” value at WDR5 worked out at 0.5 Kelvin.

Broadly, the Kd is the constant that tells how readily two partners part at equilibrium. Higher therefore signals lower affinity. Take `COc1ccc(CCc2nc3cc(-c4c(C)noc4C)ccc3n2C[C@H](C)N2CCOCC2)cc1Cl` [SGC-CBP30]: the Kd was over 30000 nM at ATAD2A (setting [3]); over 100000 nM on ATAD2A (KD, BROMOscan, ATAD2A); over 30000 nM on BAZ2B (setting [3]); over 100000 nM at BAZ2B (KD, BROMOscan, BAZ2B); 21 µM on BRD1; 2400 nM on BRD2(2). The Kd at BRD3(1) is 740 nM; on BRD4(1) it was 1100 nM; on BRD4(1,2), 3.4 µM; at BRD8(1) (setting [3]), over 30000 nM; on BRD8(1) (KD, BROMOscan, BRD8(1)), over 100000 nM; on BRPF1 it was 2400 nM. Further, the Kd at BRPF3 [2] (setting [3]) is over 30000 nM; at BRPF3 [2] (KD, BROMOscan, BRPF3), over 100000 nM; on CECR2 it was 7.9 µM; on FALZ, 81 µM; on GCN5L2 (setting [3]), over 30000 nM; on GCN5L2 (KD, BROMOscan, GCN5L2), over 100000 nM. Besides, the Kd is over 30000 nM on PBRM1(2) (setting [3]); over 100000 nM at PBRM1(2) (KD, BROMOscan, PBRM1(2)); 49.7 µM on PBRM1(5); 12 µM on WDR9(2).

Consider `CN(C)CCCOc1ccc(-c2cc(NCCCn3cccn3)nc(S(C)(=O)=O)n2)cc1` [TP-238], for which the “Tm (C) 10µM, temperature shift” value at 53BP1 is given as 0.4 Kelvin; at BRPF3 [1], 0.2 Kelvin; on EED, -0.3 Kelvin; on FXR1, 0.4 Kelvin; in the experiment with RBBP1, -0.4 Kelvin; on SND1, -0.5 Kelvin. For the same compound, the results for the “Tm (C) 10µM, temperature shift” value on TDRD3, at UHRF1 and at WDR5 were -0.7 Kelvin, 0.0 Kelvin and 0.2 Kelvin, respectively.
